Assay results taken from PMC7411887, “New Paracyclophanylthiazoles with Anti-Leukemia Activity: Design, Synthesis, Molecular Docking, and Mechanistic Studies” (Molecules, 2020).
Read-outs that look alike come from different tables or passages of the source.

Legend:
MOLT-4 = test: NCI five-dose assay; type: cell-based; details: Leukemia MOLT-4
EKVX = test: NCI five-dose assay; type: cell-based; details: Non-Small-Cell Lung Cancer EKVX
NCI-H226 = test: NCI five-dose assay; type: cell-based; details: Homo sapiens, Non-Small-Cell Lung Cancer NCI-H226
NCI-H322M = test: NCI five-dose assay; type: cell-based, human; details: Non-Small-Cell Lung Cancer NCI-H322M
COLO 205 = test: NCI five-dose assay; type: cell-based, human; details: Colon Cancer COLO 205
HCT-15 = test: NCI five-dose assay; type: cell-based; details: Colon Cancer HCT-15
SF-268 = test: NCI five-dose assay; type: cell-based; details: Homo sapiens, CNS Cancer SF-268
SF-295 = test: NCI five-dose assay; type: cell-based; details: CNS Cancer SF-295
SF-539 = test: NCI five-dose assay; type: cell-based; details: CNS Cancer SF-539
SNB-19 = test: NCI five-dose assay; type: cell-based; details: CNS Cancer SNB-19
SNB-75 = test: NCI five-dose assay; type: cell-based; details: CNS Cancer SNB-75
MALME-3M = test: NCI five-dose assay; type: cell-based; details: Homo sapiens, Melanoma MALME-3M
SK-MEL-2 = test: NCI five-dose assay; type: cell-based; details: Melanoma SK-MEL-2
SK-MEL-5 = test: NCI five-dose assay; type: cell-based; details: Melanoma SK-MEL-5
UACC-257 = test: NCI five-dose assay; type: cell-based; details: Melanoma UACC-257
UACC-62 = test: NCI five-dose assay; type: cell-based; details: Melanoma UACC-62
IGROV1 = test: NCI five-dose assay; type: cell-based; details: Ovarian Cancer IGROV1
OVCAR-8 = test: NCI five-dose assay; type: cell-based; details: Ovarian Cancer OVCAR-8
786-0 = test: NCI five-dose assay; type: cell-based; details: Renal Cancer 786-0
A498 = test: NCI five-dose assay; type: cell-based; details: Renal Cancer A498
ACHN = test: NCI five-dose assay; type: cell-based; details: Renal Cancer ACHN
RXF393 = test: NCI five-dose assay; type: cell-based; details: Renal Cancer RXF393
TK-10 = test: NCI five-dose assay; type: cell-based, human; details: Renal Cancer TK-10
PC-3 = test: NCI five-dose assay; type: cell-based; details: Prostate Cancer PC-3
MDA-MB-231/ATCC = test: NCI five-dose assay; type: cell-based; details: Breast Cancer MDA-MB-231/ATCC
[1] = system: 60 human tumor cell lines; test: NCI five-dose assay, full panel; type: cell-based; details: for GI50: Homo sapiens
Procedure: The outcomes were used to form log concentration vs. percentage growth inhibition curves and three response parameters (GI50, total growth inhibition (TGI), and LC50) were calculated for each cell line (Table 2).
The criterion for selectivity of a compound depends upon the ratio obtained by dividing the full-panel MID (the average sensitivity of all cell lines toward the test agent) (μM) by the individual subpanel MIDs (μM).

SR cancer cell line = test: Annexin V/PI flow cytometry; type: cell-based, human; details: 24 h, at IC50, second value printed in the panel of Figure 11
Procedure: Figure 11 Contour diagram of annexin V/PI flow cytometry against SR cancer cell line. […] The test was repeated three times. Following incubation for 24 h, cells were analyzed by flow cytometry after double staining with annexin V/PI.

[2] = system: P-glycoprotein (Pgp) in MDR-SR Leukemia cell line; test: Multidrug resistance assay (Pgp ELISA); type: cell-based, human; details: relative to control
[3] = Homo sapiens, read-out: GI50 Concentration/Cell Line
[4] = Homo sapiens, read-out: LC50 (the source's name)
[5] = read-out: GI50 Concentration/Cell Line
[6] = read-out: LC50 (the source's name)

Which LC50 (concentration killing 50% of cells) (MOLT-4; Homo sapiens) does the source give for `COC(=O)C=C1SC(=NNC(=O)c2cc3ccc2CCc2ccc(cc2)CC3)N(c2ccccc2)C1=O` [Compound 3a] here?
Its LC50 (concentration killing 50% of cells) is greater than 100 µM.

What about the GI50 (MOLT-4; [3]) of the same compound?
The GI50 was 3.12 µM.

What about the “TGI Concentration/Cell Line” value (MOLT-4) of the same compound?
The value was greater than 100 µM.

What about the GI50 (EKVX; [3]) of the same compound?
Its GI50 is 1910 nM.

And the CC50 (EKVX; [4])?
The CC50 was 9.38 µM.

And the “TGI Concentration/Cell Line” value (EKVX)?
Its value is 4.23 µM.

And the LC50 (concentration killing 50% of tumour cells) (NCI-H226)?
The LC50 (concentration killing 50% of tumour cells) was greater than 100 µM.

What about the GI50 (NCI-H226; [5]) of the same compound?
The GI50 was 4.38 µM.

And the GI50 (NCI-H322M; [3])?
The GI50 was 2020 nM.

And the “TGI Concentration/Cell Line” value (NCI-H322M)?
The value was 4.75 µM.

What about the “TGI Concentration/Cell Line” value (COLO 205) of the same compound?
The value was 4.61 µM.

And the GI50 (COLO 205; [3])?
The GI50 was 2130 nM.

What about the “TGI Concentration/Cell Line” value (HCT-15) of the same compound?
Its value is 4.05 µM.

What about the LC50 (HCT-15; Homo sapiens) of the same compound?
Its LC50 is 8.76 µM.

And the GI50 (HCT-15; [3])?
The GI50 was 1870 nM.

What about the GI50 (SF-268; [5]) of the same compound?
Its GI50 is 3.09 µM.

And the CC50 (SF-268; [6])?
The CC50 was greater than 100 µM.

And the “TGI Concentration/Cell Line” value (SF-295)?
The value was 4.19 µM.

And the LC50 (SF-295; Homo sapiens)?
Its LC50 is 8.5 µM.

And the GI50 (SF-295; [3])?
Its GI50 is 2070 nM.

What about the “TGI Concentration/Cell Line” value (SF-539) of the same compound?
Its value is 3.32 µM.

And the GI50 (SF-539; [3])?
The GI50 was 1790 nM.

And the CC50 (SF-539; [4])?
Its CC50 is 6.18 µM.

What about the “TGI Concentration/Cell Line” value (SNB-19) of the same compound?
Its value is 4.25 µM.

And the LC50 (concentration killing 50% of cells) (SNB-19; Homo sapiens)?
The LC50 (concentration killing 50% of cells) was 9.26 µM.

And the GI50 (SNB-19; [3])?
The GI50 was 1950 nM.

And the “TGI Concentration/Cell Line” value (SNB-75)?
Its value is greater than 100 µM.

What about the LC50 (SNB-75; Homo sapiens) of the same compound?
Its LC50 is greater than 100 µM.

What about the GI50 (SNB-75; [3]) of the same compound?
Its GI50 is 5.44 µM.

What about the GI50 (MALME-3M; [5]) of the same compound?
The GI50 was 3.27 µM.

And the CC50 (MALME-3M; [6])?
Its CC50 is greater than 100 µM.

And the LC50 (concentration causing 50% net cell kill) (SK-MEL-2; Homo sapiens)?
Its LC50 (concentration causing 50% net cell kill) is greater than 100 µM.

And the GI50 (SK-MEL-2; [3])?
The GI50 was 2650 nM.

What about the “TGI Concentration/Cell Line” value (SK-MEL-2) of the same compound?
Its value is 7.76 µM.

What about the LC50 (SK-MEL-5; Homo sapiens) of the same compound?
Its LC50 is greater than 100 µM.

What about the GI50 (SK-MEL-5; [3]) of the same compound?
The GI50 was 7.56 µM.

What about the “TGI Concentration/Cell Line” value (SK-MEL-5) of the same compound?
The value was greater than 100 µM.

And the LC50 (UACC-257; Homo sapiens)?
Its LC50 is greater than 100 µM.

What about the GI50 (UACC-257; [3]) of the same compound?
Its GI50 is 5.14 µM.

And the “TGI Concentration/Cell Line” value (UACC-257)?
Its value is greater than 100 µM.

And the GI50 (UACC-62; [3])?
Its GI50 is 1960 nM.

What about the CC50 (UACC-62; [4]) of the same compound?
Its CC50 is 9.02 µM.

And the “TGI Concentration/Cell Line” value (UACC-62)?
Its value is 4.21 µM.

What about the LC50 (NCI lethal concentration, 50% net cell kill) (IGROV1; Homo sapiens, IGROV-1) of the same compound?
The LC50 (NCI lethal concentration, 50% net cell kill) was 6.44 µM.

And the GI50 (IGROV1; Homo sapiens, IGROV-1, read-out: GI50 Concentration/Cell Line)?
Its GI50 is 1660 nM.

And the “TGI Concentration/Cell Line” value (IGROV1)?
The value was 3.27 µM.

What about the GI50 (OVCAR-8; [3]) of the same compound?
The GI50 was 3.08 µM.

What about the CC50 (OVCAR-8; [4]) of the same compound?
Its CC50 is greater than 100 µM.

What about the “TGI Concentration/Cell Line” value (OVCAR-8) of the same compound?
The value was greater than 100 µM.

And the GI50 (786-0; [3])?
The GI50 was 2000 nM.

And the CC50 (786-0; [4])?
The CC50 was 9.58 µM.

And the “TGI Concentration/Cell Line” value (786-0)?
The value was 4.38 µM.

What about the CC50 (A498; [4]) of the same compound?
Its CC50 is greater than 100 µM.

What about the “TGI Concentration/Cell Line” value (A498) of the same compound?
Its value is 8.36 µM.

What about the GI50 (ACHN; [3]) of the same compound?
The GI50 was 1780 nM.

And the CC50 (ACHN; [4])?
The CC50 was 6.08 µM.

And the “TGI Concentration/Cell Line” value (ACHN)?
Its value is 3.29 µM.

What about the LC50 (50% lethal concentration) (RXF393; Homo sapiens, RXF 393) of the same compound?
Its LC50 (50% lethal concentration) is greater than 100 µM.

What about the “TGI Concentration/Cell Line” value (RXF393) of the same compound?
The value was 3.86 µM.

And the GI50 (TK-10; [3])?
The GI50 was 2030 nM.

What about the “TGI Concentration/Cell Line” value (TK-10) of the same compound?
The value was 5.60 µM.

What about the LC50 (PC-3; Homo sapiens) of the same compound?
The LC50 was 7.7 µM.

And the GI50 (PC-3; [3])?
Its GI50 is 1710 nM.

And the “TGI Concentration/Cell Line” value (PC-3)?
Its value is 3.63 µM.

What about the “TGI Concentration/Cell Line” value (MDA-MB-231/ATCC) of the same compound?
Its value is 7.46 µM.

And the LC50 (MDA-MB-231/ATCC; Homo sapiens)?
The LC50 was greater than 100 µM.

And the GI50 (MDA-MB-231/ATCC; [3])?
The GI50 was 2630 nM.

What about the GI50 ([1]; full panel, read-out: MID^a (GI50, average sensitivity of all cell lines)) of the same compound?
Its GI50 is 2380 nM.

And the GI50 ([1]; nine subpanels, read-out: GI50 range over tested cell lines)?
Its GI50 is 1520 to 7560 nM.

And the MID^c (TGI, average sensitivity of all cell lines) ([1]; full panel)?
Its MID^c (TGI, average sensitivity of all cell lines) is 21.1 µM.

And the “percentage of cells in late apoptosis (upper right quadrant)” value (SR cancer cell line)?
The value was 19%.

What about the “Pgp-Mediated MDR Fold Change” value [2] of the same compound?
Its value is 1.15 fold.
